Results from patent publication US20120015882A1, “COMPOSITION FOR REGULATING AUTONOMIC NERVOUS ACTIVITY AND METHOD FOR REGULATING AUTONOMIC NERVE” (priority 2009, published 2012).

Key:
autonomic nerve = settings: intravenous administration; cited from earlier work
[1] = test system: parasympathetic (vagus) nerve controlling the stomach; assay: Action potential of the parasympathetic (vagus) nerve controlling the stomach (GVNA) after oral administration; assay type: in vivo, rat; settings: rats, 5 to 60 minutes after administration, ANOVA
Description: Water or 0.045 mg/kg weight or 0.12 mg/kg weight of Tyr-Pro was administered to rats (n=3), and the action potential of the parasympathetic (vagus) nerve controlling the stomach was measured over time. […] Values for 5 to 60 minutes after the administration were treated as a group, and a significance test with respect to the water-administered control group was conducted by the analysis of variance (ANOVA).
Male Wister rats (approximately […]) (n=3) with a body weight of approximately 300 g were used, and they took food and water ad lib. To examine the activity of the autonomic nerve, after a 3-hour fast, a polyethylene tube for oral administration was inserted into the oral cavity of each rat under urethane anesthesia in the middle of a light period. Thereafter, a sympathetic nerve controlling the adrenal gland, a parasympathetic (vagus) nerve controlling the stomach, or sympathetic nerve in a cutaneous artery of the tail was hooked to a silver electrode, and the electrical activity of the nerve was determined. […] In a period where the activities of these nerves were stabilized, 1 ml of each sample was orally administered through a polyethylene tube, and the changes in activities of these nerves were measured. […]

[2] = test system: sympathetic nerve controlling the adrenal gland; assay: Action potential of the sympathetic nerve controlling the adrenal gland (ASNA) after oral administration; assay type: in vivo, rat; settings: rats, 0.012 mg/kg weight, 5 to 60 minutes after administration, ANOVA
Description: […] […] Values for 5 to 60 minutes after the administration were treated as a group, and a significance test with respect to the water-administered control group was conducted by the analysis of variance (ANOVA).
Male Wister rats (approximately […]) (n=3) with a body weight of approximately 300 g were used, and they took food and water ad lib. To examine the activity of the autonomic nerve, after a 3-hour fast, a polyethylene tube for oral administration was inserted into the oral cavity of each rat under urethane anesthesia in the middle of a light period. Thereafter, a sympathetic nerve controlling the adrenal gland, a parasympathetic (vagus) nerve controlling the stomach, or sympathetic nerve in a cutaneous artery of the tail was hooked to a silver electrode, and the electrical activity of the nerve was determined. From the start of the operation to the completion of the determination, the tube was kept inserted in the trachea to secure the airway, and the body temperature (rectal temperature of the rat) was kept at 35.0±0.5° C. by using an incubator. In a period where the activities of these nerves were stabilized, 1 ml of each sample was orally administered through a polyethylene tube, and the changes in activities of these nerves were measured. […]

[3] = test system: sympathetic nerve in a cutaneous artery of the tail; assay: Action potential of the sympathetic nerve in the cutaneous artery of the tail (CASNA) after oral administration; assay type: in vivo, rat; settings: rats, 0.12 mg/kg weight, 5 to 60 minutes after administration
Description: Water, 0.12 mg/kg weight of Tyr-Pro, or 4.2 mg/kg weight of a casein hydrolysate was administered to rats (n=3), and the action potential of the sympathetic nerve in the cutaneous artery of the tail was measured over time. […] Values for 5 to 60 minutes after the administration were treated as a group, and a significance test with respect to the water-administered control group was conducted by the analysis of variance (ANOVA).
Male Wister rats (approximately 0-week old) (n=3) with a body weight of approximately 300 g were used, and they took food and water ad lib. To examine the activity of the autonomic nerve, after a 3-hour fast, a polyethylene tube for oral administration was inserted into the oral cavity of each rat under urethane anesthesia in the middle of a light period. Thereafter, a sympathetic nerve controlling the adrenal gland, a parasympathetic (vagus) nerve controlling the stomach, or sympathetic nerve in a cutaneous artery of the tail was hooked to a silver electrode, and the electrical activity of the nerve was determined. […] In a period where the activities of these nerves were stabilized, 1 ml of each sample was orally administered through a polyethylene tube, and the changes in activities of these nerves were measured. […]

[4] = test system: gastric emptying function; assay: Gastric emptying function test (phenol red dye discharge); assay type: in vivo, rat; settings: SD rats, oral 0.1 mg/kg weight, dye 30 minutes later, stomach extirpated 20 minutes after dye; mean±standard error; control 78.8±2.41%
Description: Water or 0.1 mg/kg weight of Tyr-Pro was administered to rats (n=10), and 30 minutes later a dye (phenol red) was administered. After additional 20 minutes, each stomach was extirpated, and the dye remaining in the stomach was determined. A significance test with respect to the water-administered control group was conducted by an unpaired Student's t test.
Male Sprague-Dawley (SD) rats (6-week old) (n=10) were used, and they took food and water ad lib. After preliminary feeding for one week or longer, the rats were subjected to the experiment. Prior to the test, all the rats were fasted in a fasting cage for 24 hours. During the period, the rats took water ad lib. In the test, a solvent (distilled water for injection) and 0.1 mg/kg weight of Tyr-Pro were orally administered to the rats, and, 30 minutes later, a 0.05% dye (phenol red) solution (containing 1.5% of carboxylmethyl cellulose) was orally administered at a volume of 1.5 ml/rat. Each stomach was extirpated under ether anesthesia 20 minutes after the administration of the dye without delay. […] The supernatant was centrifuged, and then measured for absorbance at 560 nm. The gastric emptying function (GE: gastric emptying) was calculated in accordance with the following formula.
GE(%)=(1−absorbance of solution recovered from stomachs of test-substance-administered group/absorbance at gastric emptying of 0%)×100 […]

[5] = test system: scopolamine-induced amnesia; assay: Scopolamine-induced amnesia, Y-shaped maze test (spontaneous alternation behavior); assay type: in vivo; settings: ddY mice, oral 1.5 mg/kg weight to 15 mg/kg weight, 60 minutes before Y-shaped maze; scopolamine 1 mg/kg s.c.
Description: A significance test on the groups was conducted by a Dunnett's multiple comparison test.
Male ddY mice (approximately 7-week old) (n=15) were used, and they took food and water ad lib.
The test substances were administered to the mice once orally 60 minutes before the execution of a Y-shaped maze test for evaluation of spontaneous alternation behavior. Further, 30 minutes before the execution of the Y-shaped maze test, 1 mg/kg weight of scopolamine was subcutaneously administered on the backs, of the mice in order to induce dysmnesia and/or cognitive impairment in the mice. […] The sequence of the arms into which each of the mice entered was recorded. The number of entries into the arms of each mouse during the measurement time was counted to be the total number of entries. […] The percentage of change in spontaneous alternation behavior was calculated by dividing the number of spontaneous alternation behavior by a number obtained by subtracting 2 from the total number of entries and multiplying a resultant number by 100. […] The measured values were expressed in the form of mean±standard error for each group. […]

[6] = test system: time of stay on the open arms; assay: Elevated plus-maze test (anti-anxiety effect); assay type: in vivo; settings: ddY mice, oral 0.1 mg/kg weight to 100 mg/kg weight, test 30 minutes after administration
Description: Water, 0.1 mg/kg weight to 100 mg/kg weight of Tyr-Pro, or 10 mg/kg to 1000 mg/kg weight of a casein hydrolysate was administered to mice (n=12), and the time for which the mice stayed on open arms was measured (Example 4). […] The data were expressed in the form of mean±standard error. A significance test with respect to the water-administered control group was conducted by an unpaired Student's t test, and *, **, and *** indicate that P<0.05, P<0.01, and P<0.001, respectively.
Male ddY mice (approximately 6-week old) (n=12) were used. After preliminary feeding, Tyr-Pro (0.1 mg/kg weight, 1.0 mg/kg weight, 10 mg/kg weight, 30 mg/kg weight, or 100 mg/kg weight) or a casein hydrolysate (10 mg/kg weight, 100 mg/kg weight, or 1000 mg/kg weight) was administered once orally. The anti-anxiety effect was examined by an elevated plus-maze test 30 minutes after the administration. The casein hydrolysate was the same as that in Example 1. […] The behaviors thereof were observed, and the accumulative time of stay on the open arms was measured. From the measured value, the percentage of the accumulative time of stay on the open arms in a 5-minute test was found, and used as an index of the anti-anxiety effect. […] The measured values were expressed in the form of mean±standard error for each group and a comparison with the control group was conducted by using an unpaired Student's t test.

pain = settings: rat, intraperitoneal; cited from earlier work
opioid receptors = settings: cited from earlier work
blood pressure = settings: orally administered; cited from earlier work

Compound	effect of controlling the autonomic nerve (autonomic nerve)	parasympathetic nervous activity in the stomach in comparison with the water-administered group ([1]; 0.045 mg/kg weight)	parasympathetic nervous activity in the stomach in comparison with the water-administered group ([1]; 0.12 mg/kg weight)	sympathetic nervous activity in the adrenal gland in comparison with the water-administered group [2]	sympathetic nervous activity in the cutaneous artery in comparison with the water-administered group [3]	dye discharge percentage (gastric emptying, GE) [4]	effect of preventing amnesia [5]	anti-anxiety effect [6]	analgesic effect (pain)	binding capability to opioid receptors (opioid receptors)	effect of lowering the blood pressure (blood pressure)
NCCC(=O)N[C@@H](Cc1cnc[nH]1)C(=O)O [carnosine]	an effect of controlling the autonomic nerve										
Tyr-Pro		significantly increased	significantly increased	significantly decreased	a tendency was observed that the sympathetic nervous activity in the cutaneous artery was lowered	85.4±2.01%	an effect of preventing amnesia	exhibited an anti-anxiety effect	exhibit an analgesic effect	lacks binding capability to opioid receptors	effect of lowering the blood pressure
